Data as given in US9789096B2, “Methods and compositions for selective and targeted cancer therapy” (Board of Regents of the University of Texas System, priority 2013, dated 2017).
Like-named read-outs stand apart in the source and are kept apart here.

Legend:
H2122 = assay: Cell viability dose-response, H2122; type: cell-based, human; conditions: Homo sapiens
Description: (§1) FIG. 6A. […] Cell viability is plotted vs. compound concentration. Compound was added to cells plated at 15% confluence in 96-well plates in RPMI-1640 media supplemented with 5% Fetal Bovine Serum and 2 mM L-Glutamine. After 4 days of incubation, ATP levels were measured using Cell Titer Glo (Promega). Data are presented as the average of 2 replicates ±SEM.
(§2) Selectivity may be measured by the half maximal inhibitory concentration (IC50), which, as used herein, is a measure of the effectiveness of a compound in killing cells. This quantitative measure indicates how much of a particular compound is needed to kill a particular cell population by half (e.g., as indicated by the amount of ATP). […] The IC50 can be determined by constructing a dose-response curve. The lower the IC50, the higher the potency, and the greater the difference between IC50 values for different cell lines (e.g., sensitive lines vs. insensitive lines, and sensitive lines vs. normal lines) the greater the selectivity. […]
(§3) With this information, we synthesized and tested a series of small molecules derived in conception from the oxalamide and chromone scaffold including N-acyl ureas, as shown in Tables 6-8. Each compound was tested in a 12-point dose-response study starting at 50 micromolar and decreasing in 3-fold increments to sub-nanomolar concentrations, in duplicate. Additionally, one or more additional cell line was tested in the same way.

H1819 = assay: Cell viability dose-response, H1819; type: cell-based, human; conditions: Homo sapiens; for IC50: NCI-H1819, 12-point dose-response starting at 50 micromolar, 3-fold increments, in duplicate, read-out: toxicity data, H1819
Description: as §1, §2, §3

[1] = NCI-H2122, Tables 3 and 4, read-out: IC50 (uM) vs indicated non-small cell lung cancer cell line H2122
[2] = NCI-H2122, 12-point dose-response starting at 50 micromolar, 3-fold increments, in duplicate, read-out: toxicity data, H2122

| SMILES | IC50 (H2122; [1]) [µM] | AC50 (H1819; NCI-H1819, Table 8, 12-point dose-response starting at 50 micromolar) [µM] | AC50 (H2122; NCI-H2122, Table 8, 12-point dose-response starting at 50 micromolar) [µM] | IC50 (H1819) [µM] | IC50 (H2122; [2]) [µM] |
| --- | --- | --- | --- | --- | --- |
| C#CCOc1ccc2nc(NC(=O)c3ccc(C(=O)c4ccccc4)cc3)sc2c1 [SW202868] | 0.005 |  |  |  |  |
| O=c1c(Cc2ccccc2C(F)(F)F)coc2cc(OCc3cnn(-c4ccccc4)c3)ccc12 [SW209192-1] |  | 49.5 | 0.028 |  |  |
| COc1ccc(CCNC(=O)c2cc(OC)c3ccccc3n2)cc1 [SW208053-1-A] |  |  |  | 32 | 45.9 |
| COc1ccc(CCNC(=O)C(=O)Nc2ccccc2OC)cc1 [SW027954-2-A] |  |  |  | ≥ 49.5 | ≥ 49.5 |
| COc1ccc(CCNC(=O)c2ccc3cccc(F)c3n2)cc1 [SW208055-1-A] |  |  |  | ≥ 49.5 | ≥ 49.5 |
| COc1ccc(CCNC(=O)C(=O)Nc2ccc(OC)c(C)c2)cc1 [SW206970-1] |  |  |  | ≥ 49.5 | 0.809 |
| COc1ccc2nc(NC(=O)c3ccc(C(=O)NCc4ccccc4)cc3)sc2c1 [SW203732] | 0.013 |  |  |  |  |
| COc1ccc(CCNC(=O)C(=O)NC2CCCC2)cc1 [SW208033-1-A] |  |  |  | ≥ 49.5 | ≥ 49.5 |
| COc1ccc(CCNC(=O)C(=O)Nc2cncc(C)c2)cc1 [SW208140-1-A] |  |  |  | 16.5 | 2.62 |
| COc1ccc(CCNC(=O)C(=O)Nc2ccc(C)c(F)c2)cc1 [SW206880-1-A] |  |  |  | ≥ 49.5 | 0.306 |
| COc1ccc(CCNC(=O)C(=O)Nc2ccnc(C)c2)cc1 [SW208138-1-A] |  |  |  | ≥ 49.5 | ≥ 49.5 |
| COc1ccc(CNC(=O)Nc2ccc(Cl)cc2)cc1 [SW208046-1-A] |  |  |  | ≥ 49.5 | ≥ 49.5 |
| COc1cccc(CCNC(=O)C(=O)Nc2ccc(Cl)cc2C)c1 [SW206965-1] |  |  |  | ≥ 49.5 | ≥ 49.5 |
| COc1ccc(CCNC(=O)C(=O)Nc2ccc(C)c(OC)c2)cc1 [SW206969-1] |  |  |  | 49 | ≥ 49.5 |
| COc1ccc(CCNC(=O)C(=O)Nc2cnccc2C)cc1 [SW208134-1-A] |  |  |  | ≥ 49.5 | ≥ 49.5 |
| COc1ccc(CCNC(=O)C(=O)Nc2c(Br)cccc2Br)cc1 [SW206887-1-A] |  |  |  | ≥ 49.5 | ≥ 49.5 |
| COc1ccc(CCNC(=O)c2nc3ccccc3c(=O)[nH]2)cc1 [SW208063-1-A] |  |  |  | ≥ 49.5 | ≥ 49.5 |

| SMILES | IC50 (H2122; [1]) [µM] | AC50 (H1819; NCI-H1819, Table 8, 12-point dose-response starting at 50 micromolar) [µM] | AC50 (H2122; NCI-H2122, Table 8, 12-point dose-response starting at 50 micromolar) [µM] | IC50 (H1819) [µM] | IC50 (H2122; [2]) [µM] |
| --- | --- | --- | --- | --- | --- |
| COc1ccc(CCNC(=O)C(=O)Nc2ccc(F)c(Br)c2)cc1 [SW206878-1-A] |  |  |  | ≥ 49.5 | 0.384 |
| COc1ccc(CCNC(=O)C(=O)Nc2cc(C)ccc2Cl)cc1 [SW206867-1-A] |  |  |  | ≥ 49.5 | ≥ 49.5 |
| COc1ccc(CCNC(=O)C(=O)Nc2ccncc2)cc1 [SW208135-1-A] |  |  |  | ≥ 49.5 | ≥ 49.5 |
| COc1ccc(CCNC(=O)C(=O)Nc2ccc(Br)cc2Br)cc1 [SW206888-1-A] |  |  |  | ≥ 49.5 | ≥ 49.5 |
| COc1ccc(CCNC(=O)C(=O)Nc2cc(Cl)cc(C(F)(F)F)c2)cc1 [SW206869-1-A] |  |  |  | ≥ 49.5 | ≥ 49.5 |
| COc1ccc(CCNC(=O)NCc2ccccc2)cc1 [SW208043-2-A] |  |  |  | ≥ 49.5 | ≥ 49.5 |
| COc1ccc(CCNC(=O)C(=O)Nc2ccc(F)cc2)cc1 [SW206961-1] |  |  |  | ≥ 49.5 | 0.286 |
| COc1ccc(CCNC(=O)NC(=O)c2ccccc2)cc1 [SW208142-1-A] |  |  |  | ≥ 49.5 | 1.09 |
| COc1ccc(CCNC(=O)C(=O)Nc2ccc(F)cc2Cl)cc1 [SW206863-1-a] |  |  |  | ≥ 49.5 | ≥ 49.5 |
| COc1ccc(CCNC(=O)C(=O)Nc2ccc(Cl)c(C)c2)cc1 [SW206974-1] |  |  |  | ≥ 49.5 | 0.697 |
| COc1ccc2nc(NC(=O)c3ccc(Nc4ccccc4)cc3)sc2c1 [SW203670] | 0.108 |  |  |  |  |
| COc1ccc(CCNC(=O)C(=O)Nc2cncc(Cl)c2)cc1 [SW208139-1-A] |  |  |  | ≥ 49.5 | 5.88 |
| COc1ccc(CCNC(=O)C(=O)N2CCc3ccccc32)cc1 [SW208059-1-A] |  |  |  | ≥ 49.5 | ≥ 49.5 |
| COc1ccc(CCNC(=O)c2cc(O)c3cccc(O)c3n2)cc1 [SW208054-1-A] |  |  |  | ≥ 49.5 | 46.3 |
| COc1ccc(CCNC(=O)c2ccc3cccc(O)c3n2)cc1 [SW208056-1-A] |  |  |  | 29.8 | 30.2 |
| COc1ccc(CCNC(=O)c2ccc3ccccc3c2O)cc1 [SW208124-1-A] |  |  |  | 34.1 | 36.2 |
| COc1ccc(CCNC(=O)C(=O)Nc2ccc(F)c(Cl)c2)cc1 [SW206860-1-A] |  |  |  | ≥ 49.5 | 0.738 |
